Assay results reported in PubChem BioAssay AID1259411 (Chemical Carcinogenesis Research Information System (CCRIS), 2018).
The source made the active and inactive calls. How the calls were made is not given here.

Tested on: rodent carcinogenicity bioassays, tumor incidence
Test: CCRIS carcinogenicity studies
Conditions: Dose: 0
Summary of the method: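 NCI-built, expert-reviewed records of carcinogenicity and related test outcomes (mutagenicity, tumor promotion/inhibition) compiled from published and report sources, historical span 1985-2011, not updated.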

Structure (SMILES): ClC1=C(Cl)C2(Cl)C3C(Cl)C(Cl)CC3C1(Cl)C2(Cl)Cl (stereo not given)
- carcinogen call (Species: MOUSE, Strain/Sex: C57B1/MALE, Route: ORAL, 50 PPM IN DIET FOR 24 MO (STUDY DURATION: 24 MO), Tumor Site: Type of Lesion: LIVER: ADENOMA OR CARCINOMA): active; positive
- carcinogen call (Species: MOUSE, Strain/Sex: ICR/FEMALE, Route: ORAL, 1, 5, 12.5 PPM IN DIET FOR 104 WK (STUDY DURATION: 104 WK), 1, 5, 12.5 PPM IN DIET FOR 104 WK (STUDY DURATION: 104 WK)): inactive; negative
- carcinogen call (Species: MOUSE, Strain/Sex: ICR/MALE, Route: ORAL, 1, 5, 12.5 PPM IN DIET FOR 104 WK (STUDY DURATION: 104 WK), 1, 5, 12.5 PPM IN DIET FOR 104 WK (STUDY DURATION: 104 WK), Tumor Site: Type of Lesion: LIVER: ADENOMA, HEMANGIOMA): active; positive
- carcinogen call (Species: RAT, Strain/Sex: F344/FEMALE, Route: ORAL, 1, 5, 25 PPM IN DIET FOR 130 WK (STUDY DURATION: 130 WK), 1, 5, 25 PPM IN DIET FOR 130 WK (STUDY DURATION: 130 WK), Tumor Site: Type of Lesion: MAMMARY GLAND: FIBROADENOMA): active; positive
- carcinogen call (Species: RAT, Strain/Sex: F344/MALE, Route: ORAL, 1, 5, 25 PPM IN DIET FOR 130 WK (STUDY DURATION: 130 WK), 1, 5, 25 PPM IN DIET FOR 130 WK (STUDY DURATION: 130 WK), Tumor Site: Type of Lesion: LIVER: NODULE): active; positive

Structure (SMILES): ClC1=C(Cl)[C@]2(Cl)[C@H]3[C@H]([C@@H]4C=C[C@H]3C4)[C@@]1(Cl)C2(Cl)Cl
- carcinogen call (Species: MOUSE, Strain/Sex: B6C3F1/FEMALE, Route: ORAL, 3, 6 PPM IN DIET FOR 80 WK (STUDY DURATION: 112-113 WK), 3, 6 PPM IN DIET FOR 80 WK (STUDY DURATION: 112-113 WK)): inactive; negative
- carcinogen call (Species: MOUSE, Strain/Sex: B6C3F1/MALE, Route: ORAL, 4, 8 PPM IN DIET FOR 74 WK (STUDY DURATION: 111-112 WK), 4, 8 PPM IN DIET FOR 74 WK (STUDY DURATION: 111-112 WK), Tumor Site: Type of Lesion: LIVER: HEPATOCELLULAR CARCINOMA): active; positive
- carcinogen call (Species: RAT, Strain/Sex: OSBORNE-MENDEL/FEMALE, Route: ORAL, 30, 60 PPM IN DIET FOR 80 WK (STUDY DURATION: 112-113 WK), 30, 60 PPM IN DIET FOR 80 WK (STUDY DURATION: 112-113 WK), Tumor Site: Type of Lesion: THYROID GLAND: FOLLICULAR CELL ADENOMA OR CARCINOMA, ADRENAL GLAND: CORTICAL ADENOMA): equivocal
- carcinogen call (Species: RAT, Strain/Sex: OSBORNE-MENDEL/MALE, Route: ORAL, 30, 60 PPM IN DIET FOR 74 WK (STUDY DURATION: 111-112 WK), 30, 60 PPM IN DIET FOR 74 WK (STUDY DURATION: 111-112 WK), Tumor Site: Type of Lesion: THYROID GLAND: FOLLICULAR CELL ADENOMA OR CARCINOMA): equivocal

Structure (SMILES): c1ccc2c(c1)cnc1ccccc12
- carcinogen call (Species: RAT, Strain/Sex: SPRAGUE-DAWLEY/FEMALE, Route: SUBCUTANEOUS, 200 UMOL/KG IN DMSO INTO SUPRASCAPULAR AREA ON DAY 1 OF LIFE FOLLOWED BY 0, 100 UMOL 1/WK AT WK 2-7 THEN 0, 200 UMOL/, 200 UMOL/KG IN DMSO INTO SUPRASCAPULAR AREA ON DAY 1 OF LIFE FOLLOWED BY 0, 100 UMOL 1/WK AT WK 2-7 THEN 0, 200 UMOL/): inactive; negative
- carcinogen call (Species: RAT, Strain/Sex: SPRAGUE-DAWLEY/MALE, Route: SUBCUTANEOUS, 200 UMOL/KG IN DMSO INTO SUPRASCAPULAR AREA ON DAY 1 OF LIFE FOLLOWED BY 0, 100 UMOL 1/WK AT WK 2-7 THEN 0, 200 UMOL/, 200 UMOL/KG IN DMSO INTO SUPRASCAPULAR AREA ON DAY 1 OF LIFE FOLLOWED BY 0, 100 UMOL 1/WK AT WK 2-7 THEN 0, 200 UMOL/): inactive; negative

Structure (SMILES): Oc1ccc2ccc3c4ccc5ccccc5c4c4c(c3c2c1O)O4
- carcinogen call (Species: MOUSE, Strain/Sex: ICR/FEMALE, Route: INTRAPERITONEAL, 25 NMOL (TOTAL DOSE) ADMINISTERED IN DOSES OF 1/7, 2/7, AND 4/7 ON DAYS 1, 7, AND 15 OF LIFE, RESPECTIVELY (STUDY DUR, Tumor Site: Type of Lesion: LUNG: TUMOR): active; positive
- carcinogen call (Species: MOUSE, Strain/Sex: ICR/FEMALE, Route: INTRAPERITONEAL, 25 NMOL TOTAL DOSE INJECTED IN DOSES OF 1/7 ON DAY 1, 2/7 ON DAY 8, AND 4/7 ON DAY 15 OF LIFE (STUDY DURATION: 35 WK), Tumor Site: Type of Lesion: LIVER: TUMOR, LUNG: TUMOR): active; positive
- carcinogen call (Species: MOUSE, Strain/Sex: ICR/MALE, Route: INTRAPERITONEAL, 25 NMOL (TOTAL DOSE) ADMINISTERED IN DOSES OF 1/7, 2/7, AND 4/7 ON DAYS 1, 7, AND 15 OF LIFE, RESPECTIVELY (STUDY DUR, Tumor Site: Type of Lesion: LUNG: TUMOR, LIVER: TUMOR): active; positive
- carcinogen call (Species: MOUSE, Strain/Sex: ICR/MALE, Route: INTRAPERITONEAL, 25 NMOL TOTAL DOSE INJECTED IN DOSES OF 1/7 ON DAY 1, 2.7 ON DAY 8, AND 4/7 ON DAY 15 OF LIFE (STUDY DURATION: 35 WK), Tumor Site: Type of Lesion: LUNG:TUMOR, LIVER: TUMOR): active; positive
- carcinogen call (Species: RAT, Strain/Sex: CD-1/FEMALE, Route: INJECTION, 0.2 UMOL IN 0.1 ML DMSO INJECTED BENEATH EACH OF THE 6 NIPPLES ON THE LEFT SIDE (STUDY DURATION: 41 WK), Tumor Site: Type of Lesion: MAMMARY GLAND: TUMOR): active; positive
- carcinogen call (Species: RAT, Strain/Sex: STRAIN-CD/FEMALE, Route: INJECTION, 0.2 UMOL IN 0.1 ML DMSO INJECTED UNDER EACH OF THE 3 LEFT THORACIC NIPPLES FOLLOWED THE NEXT DAY BY SIMILAR TREATMENT, Tumor Site: Type of Lesion: MAMMARY GLAND: TUMOR): active; positive

Structure (SMILES): O=[N+]([O-])c1cccc2c1-c1cccc3c([N+](=O)[O-])ccc-2c13
- carcinogen call (Species: RAT, Strain/Sex: F344/DUCRJ/MALE, Route: PULMONARY IMPLANT, 0.2 MG AS A SUSPENSION IN EQUAL VOL OF BEESWAX AND TRICAPRYLIN IMPLANTED IN LEFT LUNG (STUDY DURATION: 70 WK), Tumor Site: Type of Lesion: LUNG: TUMOR): active; positive
- carcinogen call (Species: RAT, Strain/Sex: F344/MALE, Route: LUNG IMPLANT, 200 UG IN BEESWAX/TRICAPRYLIN INTO LOWER LEFT LUNG ONCE (STUDY DURATION: 100 WK), Tumor Site: Type of Lesion: LUNG: SQUAMOUS CELL CARCINOMA): active; positive
- carcinogen call (Species: RAT, Strain/Sex: F344/MALE, Route: PULMONARY IMPLANT, 200 UG IN 50 µL BEESWAX/TRICAPRYLIN IMPLANTED FOR UP TO 100 WK (STUDY DURATION: 100 WK), Tumor Site: Type of Lesion: LUNG: TUMOR): active; positive

Structure (SMILES): COc1ccccc1[N+](=O)[O-]
- carcinogen call (Species: MOUSE, Strain/Sex: B6C3F1/MALE, Route: ORAL, 666, 2000, 6000 PPM IN DIET FOR 103 WK (STUDY DURATION: 103 WK), 666, 2000, 6000 PPM IN DIET FOR 103 WK (STUDY DURATION: 103 WK), Tumor Site: Type of Lesion: LIVER: HEPATOBLASTOMA, HEPATOCELLULAR ADENOMA): active; positive
- carcinogen call (Species: RAT, Strain/Sex: F344/N/FEMALE, Route: ORAL, 222, 666, 2000 PPM IN DIET FOR 103 WK (STUDY DURATION: 103 WK), 222, 666, 2000 PPM IN DIET FOR 103 WK (STUDY DURATION: 103 WK)): inactive; negative
- carcinogen call (Species: RAT, Strain/Sex: F344/N/FEMALE, Route: ORAL, 6000, 18,000 PPM IN DIET FOR 27 WK (STUDY DURATION: 104 WK), 6000, 18,000 PPM IN DIET FOR 27 WK (STUDY DURATION: 104 WK), Tumor Site: Type of Lesion: COLON: ADENOMATOUS POLYP, URINARY BLADDER: CARCINOMA, SARCOMA): active; positive
- carcinogen call (Species: RAT, Strain/Sex: F344/N/MALE, Route: ORAL, 222, 666, 2000 PPM IN DIET FOR 103 WK (STUDY DURATION: 103 WK), 222, 666, 2000 PPM IN DIET FOR 103 WK (STUDY DURATION: 103 WK)): inactive; negative
- carcinogen call (Species: RAT, Strain/Sex: F344/N/MALE, Route: ORAL, 6000, 18,000 PPM IN DIET FOR 27 WK (STUDY DURATION: 104 WK), 6000, 18,000 PPM IN DIET FOR 27 WK (STUDY DURATION: 104 WK), Tumor Site: Type of Lesion: COLON: ADENOMATOUS POLYP, KIDNEY: CARCINOMA, URINARY BLADDER: CARCINOMA, SARCOMA, Tumor Site: Type of Lesion: COLON: ADENOMATOUS POLYP, KIDNEY: CARCINOMA, URINARY BLADDER: CARCINOMA, SARCOMA): active; positive
